Here are results for 30 compounds from ChEMBL document CHEMBL5241130, “Integrating a phenotypic screening with a structural simplification strategy to identify 4-phenoxy-quinoline derivatives to potently disrupt the mitotic localization of Aurora kinase B” (Bioorg Med Chem, 2023).

As usually defined, the inhibition is the relative decrease from the control value, in per cent.

Calls of active or inactive are those of the source. No cut-off for these calls is given here. Some results are limits rather than exact numbers.

For test [1], the target named is Aurora kinase B (Homo sapiens) (UniProt Q96GD4). Kind of test: Disruption of mitotic localization of AURKB in human RPE-MYC H2B-GFP cells assessed as induction of mitotic arrest measured after 24 hrs by fluorescence high content cell imaging analysis. It counts as cell-based.
For test [2] the target is unchanged. Briefly: Disruption of mitotic localization of AURKB in human RPE-MYC H2B-GFP cells assessed as induction of polyploidy by fluorescence high content cell imaging analysis. It counts as cell-based.
For another test, the system named is A549. Briefly: Cytotoxicity against human A549 cells assessed as cell growth inhibition incubated for 3 days by MTT assay. Particulars: time 3.0 day. Format: functional, cell-based.
The target in test [3] is Aurora kinase B (Homo sapiens) (UniProt Q96GD4). Briefly: Disruption of mitotic localization of AURKB in human RPE-MYC cells expressing BCL2 assessed as disruption of PLK1 localization at spindle mid-zone at 40 nM measured after 6 hrs by immunofluorescence staining analysis. Format: cell-based.
The test system of another test is MDA-MB-231. Briefly: Cytotoxicity against human MDA-MB-231 cells assessed as cell growth inhibition incubated for 3 days by MTT assay. Format: functional, cell-based. The note with it: time 3.0 day. On the technique in general: Formazan colour is commonly taken as a measure of viable cells.
Test [4] concerns the target Aurora kinase B (Homo sapiens) (UniProt Q96GD4). Briefly: Disruption of mitotic localization of AURKB at the spindle mid-zone and equatorial cortex in human RPE-MYC cells expressing BCL2 at 40 nM measured after 6 hrs by immunofluorescence staining analysis. Format: cell-based.
The target is the same in test [5]. Kind of test: Disruption of mitotic localization of AURKB in human RPE-MYC cells expressing BCL2 assessed as disruption of MKLP1 localization at spindle mid-zone at 40 nM measured after 6 hrs by immunofluorescence staining analysis. Format: cell-based.
The target is the same in test [6]. Briefly: Disruption of mitotic localization of AURKB in human RPE-MYC H2B-GFP cells assessed as induction of mitotic arrest by fluorescence high content cell imaging analysis. Format: cell-based.
A further test has as its system NCI-N87. Kind of test: Cytotoxicity against human NCI-N87 cells assessed as cell growth inhibition incubated for 3 days by MTT assay. Format: functional, cell-based. The note with it: time 3.0 day.
Test [7] deals with Aurora kinase B (Homo sapiens) (UniProt Q96GD4). Briefly: Disruption of mitotic localization of AURKB in human RPE-MYC H2B-GFP cells assessed as induction of polyploidy by fluorescence high content cell imaging analysis relative to control. It counts as cell-based.
The next test concerns HCT-116. Kind of test: Cytotoxicity against human HCT-116 cells assessed as cell growth inhibition incubated for 3 days by MTT assay. Particulars: time 3.0 day. Format: functional, cell-based.
Test [8] addresses Aurora kinase B (Homo sapiens) (UniProt Q96GD4). Kind of test: Inhibition of AURKB in human RPE-MYC H2B-GFP cells assessed as inhibition of histone H3 phosphorylation at Ser10 residue at 8XMEC measured after 6 hrs by immunofluorescence staining analysis. It counts as cell-based.
In the next test the test system is NCI-H23. Kind of test: Cytotoxicity against human NCI-H23 cells assessed as cell growth inhibition incubated for 3 days by MTT assay. It counts as functional, cell-based. Particulars: time 3.0 day.
A further test concerns HeLa. Kind of test: Cytotoxicity against human HeLa cells assessed as cell growth inhibition incubated for 3 days by MTT assay. It counts as functional, cell-based. Particulars: time 3.0 day.
Test [9] concerns the target T1, Aurora kinase A (Homo sapiens) (UniProt O14965).
T1 sequence (whole entry): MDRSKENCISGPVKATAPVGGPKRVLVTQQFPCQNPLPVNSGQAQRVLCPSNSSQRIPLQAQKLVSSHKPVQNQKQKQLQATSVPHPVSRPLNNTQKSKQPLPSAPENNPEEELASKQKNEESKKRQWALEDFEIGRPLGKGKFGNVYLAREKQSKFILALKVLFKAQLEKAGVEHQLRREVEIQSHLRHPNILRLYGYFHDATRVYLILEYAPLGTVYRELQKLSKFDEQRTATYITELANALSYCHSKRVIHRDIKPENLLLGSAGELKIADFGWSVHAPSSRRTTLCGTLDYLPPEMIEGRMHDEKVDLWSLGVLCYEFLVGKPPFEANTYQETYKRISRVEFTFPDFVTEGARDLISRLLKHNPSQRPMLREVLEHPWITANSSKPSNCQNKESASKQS
Briefly: Inhibition of AURKA in human RPE-MYC H2B-GFP cells assessed as inhibition of autophosphorylation of AURKA at Thr288 residue at 8XMEC measured after 6 hrs by immunofluorescence staining analysis. It counts as cell-based.

The subject of another test is SW480. Briefly: Cytotoxicity against human SW480 cells assessed as cell growth inhibition incubated for 3 days by MTT assay. Format: functional, cell-based. Particulars: time 3.0 day.

Chain of Aurora kinase B (Homo sapiens) (Q96GD4 whole entry): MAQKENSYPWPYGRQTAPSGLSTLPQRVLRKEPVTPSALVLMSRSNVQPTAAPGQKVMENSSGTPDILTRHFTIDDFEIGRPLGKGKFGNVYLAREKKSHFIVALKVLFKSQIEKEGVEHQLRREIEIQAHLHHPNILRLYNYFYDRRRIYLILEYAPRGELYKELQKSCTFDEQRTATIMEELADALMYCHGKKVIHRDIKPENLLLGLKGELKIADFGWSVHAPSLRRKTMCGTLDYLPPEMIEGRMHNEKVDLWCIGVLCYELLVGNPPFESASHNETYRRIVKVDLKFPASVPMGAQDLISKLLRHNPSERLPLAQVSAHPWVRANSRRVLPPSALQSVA

With `COC(=O)c1ccc(OC)c(Oc2ccnc3ccccc23)c1`, the MEC in test [1] and in test [2] was 0.625 µM throughout.
For `COc1cccc(Oc2ccnc3ccccc23)c1`, the MEC in test [1] and in test [2] was 5 µM throughout.
On to `COc1cc(Oc2ccnc3cc(OC)c(OC)cc23)cc(-n2cccn2)c1`, for which the result (with A549; in test [3]; with MDA-MB-231; in test [4]; in test [5]; in the test on NCI-N87) was Active. Besides, the result in the test with HCT-116, with NCI-H23, in the test with HeLa and with SW480 was Active. Further, in test [6], the result was inactive. The Activity in test [7] turned out to be 100%. The inhibition in test [8] and in test [9] was < 40% throughout. Besides, the MEC in [1] and in test [2] was 0.012 µM in each case.
Regarding `COc1cc(Oc2ccnc3ccc(OC)cc23)cc(-n2cccn2)c1`, the result (in the test with A549; in test [3]; in the test with MDA-MB-231; in test [4]; in test [5]; in the test on NCI-N87) was Active. Besides, the outcome in the test on HCT-116, in the test with NCI-H23, in the test with HeLa and in the test on SW480 was Active. Also, in test [6], the outcome was inactive. In test [7], the Activity worked out at 100%. Also, the inhibition in test [8] and in test [9] was < 40% each time. In addition, the MEC in [1] and in [2] was 0.012 µM throughout.
Regarding `COc1cc(NC(C)=O)cc(Oc2ccnc3ccccc23)c1`, the MEC in test [1] and in [2] was 0.078 µM each time.
Consider `COc1cc(Oc2ccnc3ccccc23)cc(C(=O)O)c1`, for which the MEC in test [1] and in [2] was > 40 µM throughout.
Regarding `COc1cc(Oc2ccnc3cc(Cl)ccc23)cc(-n2cccn2)c1`, the MEC in test [1] and in test [2] was 20 µM in each case.
Take `COc1cc(NC(C)=O)cc(Oc2ccnc3cc(OC)c(OC)cc23)c1`: the figures for the MEC in test [1] and in test [2] were 0.039 µM and 0.078 µM, respectively.
As for `COc1ccc(Oc2ccnc3ccccc23)cc1`, the MEC in [1] and in test [2] was > 40 µM each time.
Regarding `O=Cc1cccc(Oc2ccnc3ccccc23)c1`, the MEC in test [1] and in test [2] was > 40 µM throughout.
In the case of `COc1cc(NC(C)=O)cc(Oc2ccnc3ccc(F)cc23)c1`, the outcome (with A549; in [3]; with MDA-MB-231; in test [4]; in test [5]; in the test with NCI-N87) was Active. Further, the result in the test with HCT-116, in the test on NCI-H23, with HeLa and with SW480 was Active. Moreover, the outcome in test [6] was inactive. Further, the Activity in test [7] worked out at 100%. Further, the inhibition in test [8] and in test [9] was < 40% throughout. In addition, the MEC in test [1] and in [2] was 0.01 µM each time.
As for `CCOC(=O)c1cccc(Oc2ccnc3ccccc23)c1`, the MEC in test [1] and in test [2] was 10 µM each time.
With `c1ccc(Oc2ccnc3ccccc23)cc1`, the MEC in test [1] and in test [2] was > 40 µM each time.
Regarding `COc1cc(Oc2ccnc3cc(OC)ccc23)cc(-n2cccn2)c1`, the MEC in test [1] and in [2] was 5 µM throughout.
Consider `COc1cc(Oc2ccnc3ccccc23)cc(C(F)(F)F)c1`, for which the MEC in [1] and in test [2] was 1.25 µM throughout.
As for `COc1cc(NC(C)=O)cc(Oc2ccnc3cc(OC)c(C(N)=O)cc23)c1`, the MEC in [1] and in [2] was 0.625 µM in each case.
Consider `COC(=O)c1cccc(Oc2ccnc3ccccc23)c1`, for which the MEC in test [1] and in test [2] was 10 µM in each case.
For the compound `COc1cc(Oc2ccnc3ccc(F)cc23)cc(-n2cccn2)c1`, the MEC in [1] and in test [2] was 0.052 µM in each case.
For the compound `COC(=O)c1cc(OC)cc(Oc2ccnc3ccccc23)c1`, the MEC in [1] and in test [2] was 0.02 µM in each case.
In the case of `COC(=O)c1ccc(Oc2ccnc3ccccc23)cc1`, the MEC in [1] and in test [2] was 40 µM throughout.
On to `COC(=O)c1cc2c(Oc3cc(OC)cc(-n4cccn4)c3)ccnc2cc1OC`, for which the MEC came out at 0.039 µM in test [1] and 0.078 µM in test [2].
With `COc1cc(Oc2ccnc3ccccc23)cc(-n2cccn2)c1`, the MEC in test [1] and in [2] was 0.078 µM each time.
For `CNC(=O)c1cc(OC)cc(Oc2ccnc3ccccc23)c1`, the figures for the MEC in test [1] and in test [2] were 0.625 µM and 1.25 µM, respectively.
For `COc1cc(Oc2ccnc3ccccc23)cc(-c2nc(C)no2)c1`, in that order: 0.625 µM and 0.625 µM.
For `COC(=O)c1cc2c(Oc3cc(NC(C)=O)cc(OC)c3)ccnc2cc1OC`, in that order: 1.25 µM and 1.25 µM.
For `CC(=O)c1cccc(Oc2ccnc3ccccc23)c1` the same measures were 10 µM and 10 µM.
For the compound `O=C(NC1CCCC1)c1cccc(Oc2ccnc3ccccc23)c1`, the MEC in [1] and in test [2] was > 40 µM in each case.
Consider `Nc1cccc(Oc2ccnc3ccccc23)c1`, for which the MEC in [1] and in test [2] was 40 µM each time.
As to `COc1cc(OC)cc(Oc2ccnc3ccccc23)c1`, the MEC in [1] and in test [2] was 0.078 µM in each case.
As for `COc1cc(Oc2ccnc3cc(C(F)(F)F)ccc23)cc(-n2cccn2)c1`, the MEC in test [1] and in [2] was > 40 µM throughout.
